According to patent US10035791B2, “Bicyclic compound and pharmaceutical composition thereof for treating stroke and use thereof” (China Medical University, priority 2016, dated 2018):

Key:
[1] = system: HIF-1α; assay: Nuclear translocation of the HIF-1α in the PCCs under hypoxia, double immunofluorescence; type: cell-based, C57BL/6 mice; conditions: 1 μM 2-ME2 for 16 hours, then 1% O2 for 8 hours, FIG. 6A
Protocol: (§1) Test cells are primary cortical cultures (PCCs) in this example. The PCCs are prepared from cerebral cortexes of gestation day 17 embryos from C57BL/6 mice as described previously (Cell Death Differ 2008; 15: 143-151). The PCCs are maintained under serum-free conditions in neurobasal medium (Invitrogen), supplemented with B-27 supplement (2%; invitrogen), glutamine (0.5 mM; Sigma Aldrich), glutamate ([…]; Sigma Aldrich), penicillin (100 U/ml) and streptomycin ([…]; Invitrogen). At 4 days in vitro, half of the medium is removed and replaced with fresh medium without glutamate. The cultures are maintained in a humidified incubator at 37° C. with 5% CO2. At 7 days in vitro, the PCCs are used for experimentation.
The subcellular locations of the HIF-1α and the Bmi-1 in the PCCs under hypoxia are examined by double immunofluorescence study. The PCCs are divided into three groups. One group is cultured with 21% of O2 as a control group. Another group is cultured with 1% of O2 for 8 hours as a hypoxic group. The other group is treated with 1 μM of 2-ME2 for 16 hours and then cultured with 1% of O2 for 8 hours as a 2-ME2 treated hypoxic group.

[2] = system: Bmi-1; assay: Bmi-1 expressions in the PCCs with hypoxic treatment, Western blot; type: cell-based, C57BL/6 mice
Protocol: as §1
The relationship between the HIF-1α activation and the Bmi-1 expressions is further analyzed by the Western blot analysis in this example. […] One group of the PCCs is transfected with LV-Bmi-1 to transient express the Bmi-1. Another group of the PCCs is treated with 1 μM of 2-ME2 for 16 hours and then transfected with the LV-Bmi-1. The other group of the PCCs is transfected with LV-GFP as the control group. In FIG. 6B, the PCCs transfected with the LV-Bmi-1 overexpress the Bmi-1. However, the overexpressions of the Bmi-1 are not affected by the pretreatment of the PCCs with 2-ME2. […]

[3] = system: Bmi-1; assay: Bmi-1 expressions of the brains of 2-ME2 treated ischemic rats, immunohistochemistry and Western blot; type: in vivo, Sprague-Dawley (SD) rats; conditions: 2-ME2 50, 100 or 150 mg/kg intraperitoneal, dose-dependent manner, FIGS. 5B, 5C
Excerpt: (§2) The ischemic rats are induced by an ischemia-reperfusion model to simulate transient focal cerebral ischemia in rats. Test animals are male Sprague-Dawley (SD) rats weighing 250-300 g. The rats are anesthetized with chloral hydrate (0.4 g/kg IP) and subjected to cerebral ischemia. The ischemia-reperfusion model is induced by ligations of bilateral common carotid arteries (CCAs) and a right middle cerebral artery (MCA). The bilateral CCAs are clamped with non-traumatic arterial clips, and the right MCA is ligated with an 10-0 nylon suture. After 90 minutes ischemia, the suture on the MCA and the arterial clips on CCAs are removed to allow reperfusion. Core body temperature is monitored with a thermistor probe (Hewlett-Packard Model 21090A probe, Hewlett-Packard Company, Andover, Mass.), and maintained at 37° C. with a heating pad during anesthesia. After recovery from anesthesia, rat body temperature is maintained at 37° C. with a heat lamp.
2-ME2 (Sigma Aldrich, USA) is dissolved in DMSO to obtain a 10 mmol/L solution. For in vivo experiments, the whole procedure is performed as previously described (Clin Cancer Res 2004, 10: 8665-8673). […]

[4] = system: HIF-1α; assay: HIF-1α expressions in the brains of the ischemic rats, Western blot; type: in vivo, Sprague-Dawley (SD) rats
Excerpt: as §2
The ischemia-reperfusion model is established as described above. The ischemic rats are injected intraperitonealy with different dosages of the Compound 1 (0.1 mg/kg, 1 mg/kg and 10 mg/kg) at 4 hours after MCA ligation for three consecutive days. Sham rats undergo same protocol with the exception of the ligation of the bilateral CCAs and the right MCA. The rats only injected a vehicle are used as the control. The ischemic rats are decapitated at 4 hours, 16 hours, 24 hours, 36 hours and 72 hours after the Compound 1 injection. The Bmi-1 expressions and the HIF-1α expressions of the ischemic rats are detected by the Western blot analysis.
The ischemic rats are further treated with 100 mg/kg of the 2-ME2 or stereotaxic injected with the LV-Bmi-1-sh or the LV-control-sh to inhibit the HIF-1α expressions and the Bmi-1 expressions, and then the ischemic rats are treated with 1 mg/kg of the Compound 1. The effect of the administration of the Compound 1 on the Bmi-1 expressions in the brains of the ischemic rats which are reduced the Bmi-1 expressions or the HIF-1α expressions are detected by the Western blot analysis.

[5] = system: ischemic rats; assay: Grip strength test; type: in vivo, Sprague-Dawley (SD) rats; conditions: 1 mg/kg, vs control group, FIG. 20
Excerpt: as §2, with “After recovery from anesthesia, rat body temperature is maintained at 37° C. with a heat lamp.” left out
The grip strength is analyzed using Grip Strength Meter (TSE-Systems). In brief, the grip strength of each forelimb of the ischemic rat is measured separately from the mean of 20 pulls, and the ratio of ipsilateral grip strength to contralateral grip strength is calculated. In addition, the ratio of grip strength post-cell-treatment and pre-cell-treatment is also calculated, and the changes are presented as a percentage of the pre-cell-treatment value.

Structure (SMILES)	translocation of the HIF-1α to the nucleus under hypoxia [1]	overexpressions of the Bmi-1 in PCCs transfected with the LV-Bmi-1 ([2]; 1 μM 2-ME2 for 16 hours before transfection, FIG. 6B)	Bmi-1 expressions of the PCCs ([2]; 1 μM 2-ME2 for 16 hours, hypoxic treatment, FIG. 6C)	upregulated Bmi-1 immunoreactivity and protein expressions after the cerebral ischemia [3]	treatment time with the highest HIF-1α expression ([4]; 1 mg/kg, 4 to 72 hours after injection, FIG. 13A) [h]	HIF-1α expressions in the brains of the ischemic rats ([4]; 0.1, 1, 10 mg/kg intraperitoneal, vs control and sham rats, FIGS. 13A, 13B)	dosage with the highest HIF-1α expression ([4]; 0.1, 1, 10 mg/kg tested, 36 hours, FIG. 13B) [mg/kg]	grip strength ratio [5]
COc1cc2c(cc1O)CC[C@@H]1[C@@H]2CC[C@]2(C)[C@@H](O)CC[C@@H]12 [Compound 2-ME2, 2-Methoxyestradiol, reference compound]	abolishes the translocation	not affected	reduced	suppressed				
COC(=O)C1=CO[C@@H](O)[C@@H]2C(COC(=O)[C@@H](N)Cc3ccccc3)=CC[C@H]12 [Compound 1]					4	significantly increases	1	much better
